A short description of data set [1]: excess molar enthalpy (molar enthalpy of mixing); xn = mol fraction of the nth substance listed. The conditions noted are these: 298.15 K, 101 kPa, Liquid, Flow calorimetry.
For data set [2] the following is noted: 298.15 K; 101.33 kPa; Liquid; Vibrating tube method.

Numbers after ± are expanded uncertainties.

On to `C1CCCCC1` [cyclohexane] + CC(C)O, for which the excess molar enthalpy in data set [1] (x2 = 0.0995) was 0.124 ± 0.00598 kcal/mol; in data set [1] (x2 = 0.2009), 0.168 ± 0.00813 kcal/mol; in data set [1] (x2 = 0.3009), 0.191 ± 0.00932 kcal/mol; in data set [1] (x2 = 0.4014) it was 0.199 ± 0.00956 kcal/mol; in data set [1] (x2 = 0.5016) it was 0.191 ± 0.00932 kcal/mol; in data set [1] (x2 = 0.6011) it was 0.173 ± 0.00837 kcal/mol. Moreover, the excess molar enthalpy turned out to be 0.143 ± 0.00693 kcal/mol in data set [1] (x2 = 0.701), 0.105 ± 0.00526 kcal/mol in data set [1] (x2 = 0.8005) and 0.0571 ± 0.00287 kcal/mol in data set [1] (x2 = 0.9005).
Turning to `C=C(C)CC(C)(C)C` [2,4,4-trimethyl-1-pentene], the mass density in data set [2] is 710.7 ± 0.2 kg/m3.
`C1CCCCC1` [cyclohexane]: the mass density in data set [2] was determined as 773.5 ± 0.2 kg/m3.
As to `C=C(C)CC(C)(C)C` [2,4,4-trimethyl-1-pentene] + CO, the excess molar enthalpy in data set [1] (x2 = 0.023) worked out at 0.0571 ± 0.00287 kcal/mol; in data set [1] (x2 = 0.1), 0.107 ± 0.00526 kcal/mol; in data set [1] (x2 = 0.198), 0.125 ± 0.00621 kcal/mol; in data set [1] (x2 = 0.301), 0.138 ± 0.00669 kcal/mol; in data set [1] (x2 = 0.398), 0.14 ± 0.00669 kcal/mol; in data set [1] (x2 = 0.498), 0.14 ± 0.00669 kcal/mol. Moreover, the excess molar enthalpy is 0.135 ± 0.00645 kcal/mol in data set [1] (x2 = 0.598), 0.122 ± 0.00598 kcal/mol in data set [1] (x2 = 0.698), 0.102 ± 0.00502 kcal/mol in data set [1] (x2 = 0.798) and 0.0674 ± 0.00335 kcal/mol in data set [1] (x2 = 0.899).
As to `CC(C)O` [propan-2-ol], in data set [2], the mass density was 780.8 ± 0.2 kg/m3.
For `CO` [methanol], the mass density in data set [2] is on record as 786.2 ± 0.2 kg/m3.

The record behind these values is the NIST ThermoML archive (doi:10.1016/j.jct.2015.01.013).
